By MIC is commonly meant the lowest concentration that inhibits growth of the organism.

Results on four compounds are retold here after DBAASP.

SMILES strings stand for the structures. Converted amounts (≈) assume the structure as drawn.

Some test systems named below: Candida krusei ATCC 6258; Enterococcus faecalis A4; Enterococcus faecium; Escherichia coli NDM; Escherichia coli W3110; Staphylococcus aureus MR; Staphylococcus aureus; Campylobacter jejuni; Escherichia coli K-12; Escherichia coli.
Common to all, as to test: ≥ marks a high value that may be exact or a test limit, other limits are often not marked, values filed in µg/mL are converted to µM
The test system of assay [1] is Candida albicans ATCC 90028.
The test system of assay [2] is Candida glabrata ATCC 90030.
Assay [3] relates to Enterobacter cloacae ATCC 13047.
Assay [4] concerns Enterococcus faecalis ATCC 4028.
Assay [5] deals with Escherichia coli ATCC 25922.
The test system of assay [6] is Pseudomonas aeruginosa ATCC 27853.
The test system of assay [7] is Staphylococcus aureus ATCC 29213.
Assay [8] relates to Staphylococcus epidermidis ATCC 12228.
Assay [9] has as its system Acinetobacter baumannii AB5075.
Assay [10] has as its system Bacillus amyloliquefaciens ATCC 23842.
For assay [11], the system named is Bacillus cereus ATCC 14579.
The test system of assay [12] is Bacillus licheniformis ATCC 14580.
Assay [13] relates to Bacillus subtilis ATCC 6051.
Assay [14] relates to Enterococcus faecalis 1F-1.
Assay [15] has as its system Enterococcus faecium 5F-10.
The subject of assay [16] is Pseudomonas aeruginosa PA14.
For assay [17], the system named is Staphylococcus aureus 215.
The test system of assay [18] is Acinetobacter baumannii Q12-0809.
Assay [19] concerns Acinetobacter baumannii Q12-0867.
For assay [20], the system named is Acinetobacter baumannii Q13-0717.
Assay [21] concerns Campylobacter jejuni NCTC 11351.
The test system of assay [22] is Enterococcus faecalis JH-2-2.
The test system of assay [23] is Klebsiella pneumoniae ATCC 700603.
Assay [24] deals with Klebsiella pneumoniae NCTC 13442.
Assay [25] concerns Klebsiella pneumoniae Q14-0095.
In assay [26] the test system is Listeria monocytogenes NCTC 11994.
Assay [27] relates to Pseudomonas aeruginosa PAO1.
In assay [28] the test system is Pseudomonas aeruginosa Q12-0535.
For assay [29], the system named is Pseudomonas aeruginosa Q14-0208.
In assay [30] the test system is Pseudomonas aeruginosa Q14-0890.
Assay [31] has as its system Salmonella typhimurium SL1344.
The test system of assay [32] is Staphylococcus aureus MRSA-15.
Assay [33] has as its system Staphylococcus aureus NCTC 12493.
The subject of assay [34] is Staphylococcus aureus Q14-0320.
The test system of assay [35] is Staphylococcus aureus RN4220.
Assay [36] has as its system Acinetobacter baumannii KCTC 2508.
Assay [37] relates to Klebsiella pneumoniae KCTC 2208.

Take `CC[C@H](C)[C@H](NC(=O)[C@H](CC(C)C)NC(=O)CNC(=O)[C@H](CCCCN)NC(=O)[C@@H](NC(=O)[C@H](CC(C)C)NC(=O)[C@H](CCCCN)NC(=O)[C@@H]1CCCN1C(=O)[C@@H](NC(=O)[C@H](CC(C)C)NC(=O)[C@H](CCCCN)NC(=O)[C@H](Cc1ccccc1)NC(=O)[C@@H](N)Cc1ccccc1)[C@@H](C)CC)C(C)C)C(=O)N[C@@H](CO)C(=O)N[C@@H](C)C(=O)N[C@@H](Cc1ccccc1)C(=O)N[C@@H](CCCCN)C(N)=O` [FFKLIPKLVKGLISAFK]: the MIC in assay [1] is 4.69 µM (≈ 9.14 µg/mL); in assay [2], 9.38 µM (≈ 18.3 µg/mL); in the assay with Candida krusei ATCC 6258, 9.38 µM (≈ 18.3 µg/mL); in [3] it was 9.38 µM (≈ 18.3 µg/mL); in assay [4] it was 1.17 µM (≈ 2.28 µg/mL); in assay [5] it was 2.34 µM (≈ 4.56 µg/mL). Moreover, the MIC turned out to be 1.17 µM (≈ 2.28 µg/mL) in assay [6], 2.34 µM (≈ 4.56 µg/mL) in [7] and 9.38 µM (≈ 18.3 µg/mL) in [8].

In the case of `CC[C@H](C)[C@H](NC(=O)[C@H](CC(C)C)NC(=O)[C@H](CO)NC(=O)[C@@H](NC(=O)[C@H](CCC(N)=O)NC(=O)[C@H](Cc1ccc(O)cc1)NC(=O)[C@H](CCCN=C(N)N)NC(=O)[C@H](CCCN=C(N)N)NC(=O)[C@H](CCCN=C(N)N)NC(=O)[C@@H](NC(=O)[C@H](CO)NC(=O)[C@@H](NC(=O)[C@@H](N)[C@@H](C)O)[C@@H](C)O)[C@@H](C)CC)C(C)C)C(=O)N[C@@H](CCCN=C(N)N)C(=O)N[C@@H](CCCN=C(N)N)C(=O)N[C@@H](Cc1cnc[nH]1)C(=O)N[C@@H](CCCN=C(N)N)C(=O)NCC(=O)N[C@@H](CCCCN)C(=O)N[C@@H](CCCN=C(N)N)C(=O)O` [TTSIRRRYQVSLIRRHRGKR], the MIC in [9] is 1 µM (≈ 2.54 µg/mL); in [10], 25.2 µM (≈ 64 µg/mL); in [11] it was 25.2 µM (≈ 64 µg/mL); in assay [12] it was 25.2 µM (≈ 64 µg/mL); in assay [13], 25.2 µM (≈ 64 µg/mL); in assay [14], 3.15 µM (≈ 8 µg/mL). The minimal inhibitory concentration (MIC) in the assay on Enterococcus faecalis A4 is 3.15 µM (≈ 8 µg/mL); in assay [15], 1.57 µM (≈ 4 µg/mL); against Enterococcus faecium, 3.15 µM (≈ 8 µg/mL); against Escherichia coli NDM it was at least 32 µM; with Escherichia coli W3110, 16 µM (≈ 40.6 µg/mL); in assay [16] it was 16 µM (≈ 40.6 µg/mL). Besides, the minimal inhibitory concentration (MIC) in assay [17] turned out to be 12.6 µM (≈ 32 µg/mL); in assay [7], 25.2 µM (≈ 64 µg/mL); against Staphylococcus aureus MR it was 25.2 µM (≈ 64 µg/mL); with Staphylococcus aureus it was 6.3 µM (≈ 16 µg/mL).

As to `CC[C@H](C)[C@H](NC(=O)[C@H](CO)NC(=O)[C@@H](N)CCCN=C(N)N)C(=O)N[C@H](C(=O)N[C@@H](CCCN=C(N)N)C(=O)N1CCC[C@H]1C(=O)N[C@H](C(=O)N[C@@H](CC(C)C)C(=O)N[C@H](C(=O)N[C@@H](CCCN=C(N)N)C(=O)N[C@@H](CCCN=C(N)N)C(=O)N[C@@H](CCCN=C(N)N)C(=O)N[C@@H](Cc1c[nH]c2ccccc12)C(=O)N[C@@H](CCCN=C(N)N)C(=O)N[C@H](C(=O)N[C@@H](CCCN=C(N)N)C(=O)N1CCC[C@H]1C(=O)N[C@H](C(=O)N[C@@H](Cc1ccccc1)C(=O)O)C(C)C)C(C)C)C(C)C)C(C)C)[C@@H](C)O` [RSITRPVLVRRRWRVRPVF], the MIC in assay [18] is 26.1 µM (≈ 64 µg/mL); in assay [19] it was at least 52.2 µM; in assay [20] it was at least 52.2 µM; in assay [21], at least 52.2 µM; against Campylobacter jejuni, at least 52.2 µM; in [22] it was at least 209 µM. For the same compound, the minimum inhibitory concentration (MIC) against Escherichia coli K-12 is at least 104 µM; in the assay with Escherichia coli it was above 52.2 µM; in [23] it was above 52.2 µM; in [24], at least 52.2 µM; in [25] it was at least 52.2 µM; in assay [26], at least 209 µM. In addition, the MIC was above 52.2 µM in assay [6]; 209 µM (≈ 512 µg/mL) in assay [27]; at least 51 µM in assay [28]; at least 52.2 µM in assay [29]; at least 52.2 µM in assay [30]; 26.1 µM (≈ 64 µg/mL) in assay [31]. The minimal inhibitory concentration (MIC) in assay [7] is above 52.2 µM; in assay [32] it was at least 102 µM; in assay [33] it was at least 52.2 µM; in assay [34], at least 52.2 µM; in [35], at least 104 µM.

For `CC[C@H](C)[C@H](N)C(=O)N[C@@H](C)C(=O)N[C@@H](CCCN=C(N)N)C(=O)N[C@@H](CCCN=C(N)N)C(=O)N[C@@H](C)C(=O)N[C@@H](CC(C)C)C(=O)N[C@@H](CCCCN)C(=O)N[C@@H](C)C(=O)N[C@@H](CO)C(=O)N[C@@H](CC(C)C)C(=O)N[C@@H](CCCN=C(N)N)C(=O)N[C@@H](C)C(=O)N[C@@H](CCCN=C(N)N)C(=O)N[C@@H](Cc1cnc[nH]1)C(=O)N[C@H](C(=O)N[C@H](C(=O)N1CCC[C@H]1C(=O)N[C@@H](CCC(N)=O)C(=O)N[C@@H](CS)C(=O)N[C@@H](CCCCN)C(=O)N[C@@H](CCCCN)C(=O)N[C@@H](Cc1ccccc1)C(=O)NCC(=O)N[C@@H](CCCN=C(N)N)C(=O)N[C@@H](CCCN=C(N)N)C(N)=O)[C@@H](C)CC)[C@@H](C)O` [IARRALKASLRARHTIPQCKKFGRR], the minimal inhibitory concentration (MIC) in [36] amounted to 4 µM (≈ 11.7 µg/mL); in assay [37], 8 µM (≈ 23.5 µg/mL); in assay [6], 4 µM (≈ 11.7 µg/mL).
